Among the data in PubChem BioAssay (NCI) are TGI and GI50 values, retold here.

Several values for one entry are separate records, joined by “and”; a condition that tells them apart may be missing. Identical values can stand only once.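 Following 48 hours of exposure in 96-well plates, responses at five concentrations were used to interpolate endpoints linearly. GI50 is the concentration that inhibits growth by half. Definition used: TGI = concentration required for complete inhibition of growth.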 *1 amine or outer side, *2 acyl side, *3 side chain or, on linkers, in order; H or OH if unused. Where a SMILES comes first, the peptide text is derived from it. Bridges are numbered along the chain shown (N, C = ends). Roman numbers before positions name the chains, in order. [ ]: non-standard residue; d: D form. Actinocin(9to1) = Cc1c2oc3c(C)ccc(C(=O)[*:1])c3nc-2c(C(=O)[*:2])c(N)c1=O; NMeV = CN[CH](C(=O)O)C(C)C; Sar = CNCC(=O)O Some results are limits rather than exact numbers.

Common to all, as to assay: growth of human tumour cells (NCI), 48 h
For assay [1], the system named is SNB-75 CNS.
Assay [2] has as its system A498 renal.
Assay [3] deals with EKVX NSCLC.
The test system of assay [4] is OVCAR-8 ovarian.
The test system of assay [5] is SR leukemia.
In assay [6] the test system is NCI-H460 lung.
Assay [7] deals with MDA-MB-435.
Assay [8] concerns NCI-H23 lung.
In assay [9] the test system is SK-MEL-2 melanoma.
Assay [10] relates to HL-60(TB) leukemia.
Assay [11] deals with RPMI-8226 leukemia.
Assay [12] has as its system SN12C renal.
Assay [13] has as its system UO-31 renal.
For assay [14], the system named is MALME-3M melanoma.
Assay [15] concerns MDA-MB-231 breast.
Assay [16] concerns OVCAR-3 ovarian.

Turning to `Cn1cccc1-c1ccc(-c2ccc(CO)[se]2)[se]1`, the TGI is 59.5 µM in assay [1]; greater than 100 µM in assay [2]; greater than 100 µM in assay [3]; greater than 100 µM in [4]; 56.9 µM in assay [5]; greater than 100 µM in assay [6]. The TGI was 18.7 µM in assay [7]; greater than 90 µM in [8]; greater than 100 µM in assay [9]; 18.9 µM in assay [10]; 47.7 µM in assay [11]; greater than 100 µM in assay [12]. For the same compound, the TGI in assay [13] is 96.9 µM; in assay [14] it was greater than 100 µM; in assay [15], greater than 79.8 µM; in assay [16], greater than 100 µM.

For the compound `CCOC(=O)C1CC(C(=O)c2ccccc2)N2c3ccccc3-c3ccccc3C12` (stereo not given), the TGI was greater than 100 µM in assay [1]; greater than 100 µM in assay [2]; greater than 100 µM in assay [3]; greater than 100 µM in assay [4]; 84.1 µM in assay [5]; greater than 100 µM in assay [6]. Further, the TGI in assay [7] is greater than 100 µM; in [8], greater than 100 µM; in assay [9] it was greater than 100 µM; in assay [10] it was 29.7 µM; in assay [11], 40.8 µM; in assay [12], greater than 100 µM. Moreover, the TGI in [13], in assay [14], in assay [15] and in assay [16] was greater than 100 µM each time.

As to `C=C(C(=O)O[C@H]1C/C(C)=C/CC/C(CO)=C/[C@H]2C(=O)OC(=C)[C@H]12)C(O)CO` (stereo not given in full), the TGI in assay [1] worked out at 34.9 µM; in assay [2], 32.7 µM; in assay [3], 36.5 µM; in assay [4], 40.1 µM; in assay [5] it was 6.81 µM; in assay [6] it was 31.6 µM. The TGI stood at 26.3 µM in [7]; 32.7 µM in [8]; 29.6 µM in [9]; 10.4 µM in [10]; 4.95 µM in assay [11]; 30.6 µM in assay [12]. For the same compound, the TGI in assay [13] is 27.6 µM; in assay [14], 10.7 µM; in assay [15], 33.3 µM; in assay [16], 22.8 µM.

As to `O=C(c1ccccc1)c1ccc2nc(-c3c(Cl)c(Cl)c(Cl)c(Cl)c3-c3nnc(-c4ccccc4)o3)[nH]c2c1`, the TGI is 84.4 µM in assay [1]; 78.4 µM in [2]; greater than 100 µM in [3]; greater than 100 µM in assay [4]; 50.2 µM in assay [5]; greater than 100 µM in assay [7]. The TGI in [8] is greater than 100 µM; in [9] it was greater than 100 µM; in [10], greater than 100 µM; in assay [11], greater than 100 µM; in assay [12], 81.7 µM; in [13], greater than 100 µM. For the same compound, the TGI in [14], in [15] and in [16] was greater than 100 µM throughout.

Take `Cc1c2oc3c(C)ccc(C(=O)NC4C(=O)NC(Cc5ccccc5)C(=O)N5CCCC5C(=O)N(C)CC(=O)N(C)C(C(C)C)C(=O)OC4C)c3nc-2c(C(=O)NC2C(=O)NC(Cc3ccccc3)C(=O)N3CCCC3C(=O)N(C)CC(=O)N(C)C(C(C)C)C(=O)OC2C)c(N)c1=O` (stereo not given) (I: TFP[Sar][NMeV] / II: TFP[Sar][NMeV]; ester I:1-I:C, II:1-II:C; linker I:N-II:N via Actinocin(9to1); configuration not given here): the TGI in [1] is 0.049 µM; in assay [2], 0.0244 µM; in assay [4] it was 1.53 µM; in assay [5], less than 0.001 µM; in assay [7] it was 0.0222 µM; in [8] it was 0.0202 µM and 0.0398 µM. For the same compound, the TGI in assay [10] is less than 0.001 µM; in [11] it was greater than 100 µM; in [13], 0.468 µM and 0.31 µM; in [14] it was 0.0187 µM; in [15], 0.255 µM; in [16], 0.0252 µM and 0.04 µM. The GI50 in assay [13] is 0.0502 µM.

Take `O=c1[nH]nc(-c2ccccc2)n1/N=C/c1ccc([N+](=O)[O-])o1`: the TGI is greater than 70.2 µM in assay [1]; 23 µM in assay [2]; 24 µM in [3]; greater than 100 µM in assay [5]; greater than 22.6 µM in [6]; 10.9 µM in [7]. Besides, the TGI was 11.6 µM in assay [9]; greater than 44.4 µM in assay [10]; 12.8 µM in [11]; 13.5 µM in [12]; 12.9 µM in assay [13]; 9.38 µM in assay [14]. In addition, the TGI in [15] came out at 19.5 µM; in [16] it was 15.5 µM.

`Cc1ccc(S(=O)(=O)NC(CCC(=O)NNc2ccccc2)C(=O)NNc2ccccc2)cc1` (stereo not given): the TGI in assay [1] is greater than 100 µM; in [2], greater than 100 µM; in assay [3] it was greater than 100 µM; in assay [4], greater than 100 µM; in [5], greater than 100 µM; in assay [6], 51.6 µM. For the same compound, the TGI in [7] is greater than 100 µM; in [8], greater than 100 µM; in assay [9] it was 83.2 µM; in assay [10], greater than 100 µM; in [11] it was greater than 100 µM; in assay [13], greater than 100 µM. For the same compound, the TGI in assay [14], in assay [15] and in assay [16] was greater than 100 µM each time.

`COc1ccc(C#Cn2nnc3ccccc32)cc1`: the TGI in assay [2], in assay [3], in [4], in assay [5], in assay [6] and in assay [7] was greater than 100 µM in each case. In addition, the TGI in [8] was greater than 100 µM; in assay [9] it was greater than 100 µM; in assay [10], 60.6 µM; in assay [11], 85.1 µM; in assay [12], greater than 100 µM; in assay [13], 4.47 µM. In addition, the TGI in assay [14], in assay [15] and in assay [16] was greater than 100 µM each time.

For `N#Cc1c(-c2ccc(Cl)cc2)cc(-c2ccc(Nc3ccnc4cc(Cl)ccc34)cc2)[nH]c1=O`, the TGI was greater than 100 µM in assay [1]; greater than 88.9 µM in assay [2]; greater than 100 µM in assay [3]; greater than 100 µM in assay [4]; greater than 100 µM in [5]; greater than 100 µM in assay [6]. Moreover, the TGI in [7] is greater than 100 µM; in [8], greater than 75.9 µM; in assay [9] it was greater than 100 µM; in [10], greater than 100 µM; in assay [11] it was greater than 100 µM; in [13], greater than 100 µM. Moreover, the values for the TGI in assay [14], in assay [15] and in [16] were greater than 100 µM, greater than 67.4 µM and greater than 100 µM, respectively.

As for `CCN1C/C(=C\c2ccc(Cl)cc2)c2nc(N)c(C#N)c(-c3ccc(Cl)cc3)c2C1`, the TGI in [1], in assay [2], in [3], in assay [4], in [5] and in [6] was greater than 100 µM each time. Also, the TGI in assay [7], in assay [8], in assay [9], in assay [10], in assay [11] and in assay [13] was greater than 100 µM in each case. The TGI in assay [14], in [15] and in assay [16] was greater than 100 µM throughout.

In the case of `O=C1NC(=O)c2ccccc2/C1=C/c1ccc2c(c1)OCO2`, the TGI in assay [1] was 86.6 µM; in [2], greater than 100 µM; in [3], greater than 100 µM; in assay [4], 95.1 µM; in [5], greater than 100 µM; in assay [7], 50.1 µM. The TGI was 46.8 µM in assay [8]; 61.4 µM in assay [9]; greater than 100 µM in [10]; 74.3 µM in [11]; 47.1 µM in [12]; 32.4 µM in [13]. Besides, the results for the TGI in assay [14], in assay [15] and in [16] were greater than 100 µM, 47.5 µM and 25 µM, respectively.

Turning to `CC1C(NNC(N)=O)Oc2cc3c(cc2C1c1ccccc1O)OCO3` (stereo not given), the TGI in assay [1] was 86.3 µM; in assay [2], 68.9 µM; in assay [3] it was greater than 100 µM; in assay [5], 43.1 µM; in assay [6] it was greater than 100 µM; in assay [7], 48 µM. Besides, the TGI in assay [8] is greater than 100 µM; in assay [9], greater than 100 µM; in assay [10] it was 35.4 µM; in [11], 78.6 µM; in [12], greater than 100 µM; in assay [13] it was greater than 100 µM. Further, the TGI in assay [14] was 97.2 µM; in [15], greater than 100 µM; in assay [16], greater than 100 µM.

Take `CC(C)(C)OC(=O)[C@@H]1CCC(=O)N1C1(c2ccccc2)c2ccccc2-c2ccccc21`: the TGI was greater than 100 µM in assay [1]; greater than 100 µM in assay [2]; greater than 100 µM in assay [3]; greater than 100 µM in assay [4]; 62.3 µM in assay [5]; greater than 100 µM in assay [6]. The TGI is greater than 100 µM in assay [7]; greater than 100 µM in assay [8]; greater than 100 µM in [9]; 61.8 µM in [10]; greater than 100 µM in [12]; greater than 100 µM in [13]. Besides, the TGI in assay [14] is greater than 100 µM; in [15] it was 86.1 µM; in [16], greater than 100 µM.

`Cc1cc(C)c2c(c1)CC1(Cc3cc(C)c(C)cc3C1=O)C2=O` (stereo not given): the TGI in [1], in assay [2], in [3], in assay [4], in assay [5] and in [6] was greater than 100 µM throughout. The TGI in assay [7], in [9], in assay [10], in [11], in [12] and in assay [13] was greater than 100 µM each time. For the same compound, the TGI in assay [14], in assay [15] and in [16] was greater than 100 µM throughout.

Regarding `COc1cc2ccc(C(=O)NCCCNC(=O)c3ccc4cc(OC)c(OC)cc4c3)cc2cc1OC`, the TGI in assay [1] is 95.8 µM; in assay [2], greater than 100 µM; in [3] it was greater than 100 µM; in assay [4], greater than 100 µM; in assay [5], greater than 100 µM; in assay [6] it was greater than 100 µM. Further, the TGI in [7], in [8], in assay [9], in [10], in assay [12] and in assay [13] was greater than 100 µM in each case. Besides, the TGI in [14], in [15] and in assay [16] was greater than 100 µM each time.

`COc1cc2cc(C(=O)N3CC(COS(C)(=O)=O)c4ccc(NC(=O)OCc5ccccc5)cc43)[nH]c2c(OC)c1OC` (stereo not given): the TGI in assay [1], in assay [2], in [3], in assay [4], in [5] and in assay [6] was greater than 100 µM in each case. Moreover, the TGI in [7], in assay [8], in assay [9], in [10], in assay [12] and in assay [13] was greater than 100 µM each time. The TGI in assay [14], in [15] and in assay [16] was greater than 100 µM each time.

For `Cc1ccc(S(=O)(=O)N2C[C@@H]3CC[C@]4(CO[Si](C)(C)C(C)(C)C)N[C@@H](c5ccccc5)[C@H]2[C@H]34)cc1`, the TGI in [2], in assay [3], in assay [4], in assay [5], in assay [6] and in assay [7] was greater than 100 µM throughout. Also, the TGI in assay [8] was greater than 100 µM; in [9], greater than 100 µM; in assay [10] it was greater than 100 µM; in assay [11], 46.8 µM; in assay [12], 76.2 µM; in assay [13] it was greater than 100 µM. Further, the TGI in assay [14] was 46.3 µM; in assay [15], greater than 100 µM; in assay [16], greater than 100 µM.
